Source: patent US11667621B2, “Antiestrogen compounds” (STEVENS INSTITUTE OF TECHNOLOGY, priority 2018, dated 2023)
Where a chain is given by its changes, count along the chain named. pIC50: −log10 of the molar value.

Tests used:
[1] = Cell proliferation assay (WST-1), 6-day exposure; format: cell-based; conditions: 144 h, read-out: Antiproliferation IC50
Protocol: Cell proliferation assay: WST-1 assay (Roche, Basel, Switzerland) was used to quantify cell viability after a 6-day exposure to compounds, as described in Gong et al. Mol. Cell. Endocrinol. 2016, 437, 190-200. Absorbance was measured at 450 nm using a VICTOR X5 PerkinElmer 2030 Multilabel Plate Reader, and cell proliferation values represent signal from compound-treated samples relative to vehicle-treated controls. All assays were performed in triplicate, and the values shown are the average SD of 2-3 independent experiments.

[2] = biological target: T1, full length human estrogen receptor a (Homo sapiens, UniProt P03372); experiment: Competitive radiometric binding assay (RBA), tritiated estradiol tracer; conditions: relative to estradiol = 100; average SD of 2-3 determinations
T1 construct: purified, full-length human estrogen receptor a from Invitrogen; purchased Invitrogen
T1 sequence (P03372 1-595): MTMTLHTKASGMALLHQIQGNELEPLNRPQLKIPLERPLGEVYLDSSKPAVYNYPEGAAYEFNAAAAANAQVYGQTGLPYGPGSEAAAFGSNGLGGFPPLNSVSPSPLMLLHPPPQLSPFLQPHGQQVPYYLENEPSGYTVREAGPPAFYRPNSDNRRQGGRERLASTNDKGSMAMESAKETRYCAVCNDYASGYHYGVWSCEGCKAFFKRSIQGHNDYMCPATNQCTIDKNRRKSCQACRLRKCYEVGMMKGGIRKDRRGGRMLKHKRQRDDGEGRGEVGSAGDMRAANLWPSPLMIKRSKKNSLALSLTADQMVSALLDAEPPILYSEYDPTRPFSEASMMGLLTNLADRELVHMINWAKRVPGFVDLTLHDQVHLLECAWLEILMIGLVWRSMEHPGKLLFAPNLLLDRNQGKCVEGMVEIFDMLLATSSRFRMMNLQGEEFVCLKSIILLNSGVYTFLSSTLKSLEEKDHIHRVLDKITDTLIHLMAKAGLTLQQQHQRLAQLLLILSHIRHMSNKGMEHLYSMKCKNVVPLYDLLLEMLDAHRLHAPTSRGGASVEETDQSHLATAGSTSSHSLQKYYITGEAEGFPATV
Protocol: Tritiated estradiol was obtained from Perkin Elmer and purified, full-length human estrogen receptor a from Invitrogen.
Competitive radiometric binding assays (RBA) were performed on 96-well microtiter filter plates (Millipore), using full length human estrogen receptor a, with tritiated estradiol as tracer, as previously described (Carlson K E, Choi I, Gee A, Katzenellenbogen B S, Katzenellenbogen J A. Altered ligand binding properties and enhanced stability of a constitutively active estrogen receptor: evidence that an open pocket conformation is required for ligand interaction. Biochemistry 1997, 36(48), 14897-14905). After incubation on ice for 18-24 h, ERα-bound tracer was absorbed onto hydroxyapatite (BioRad), washed with buffer, and measured by scintillation counting. RBA values are the average SD of 2-3 determinations.

[3] = biological target: T2, HA-ERα Y537S (Homo sapiens, UniProt P03372, Y537S); experiment: Luciferase assay, overexpressed ER (3×-ERE-TATA-Luciferase reporter); format: cell-based; conditions: for inhibition at 1 µM: compound concentration 1 μM, 24 hours
T2 construct: HA; expressed in transfected cells
T2 sequence (P03372 1-595 Y537S): T1 sequence (P03372 1-595) with Y537S
Protocol: (§1) Luciferase assays were performed to determine the efficacy of the example compounds at inhibiting ER or its mutants' ability to activate transcription of genes.
(§2) Cells were plated at a density of 0.15×10^6 per well of 24 well plates one day prior to transfection. Cells were transfected with 125 ng (per well) of HA-ERα wild type or mutants, 315 ng (per well) of 3×-ERE-TATA-Luciferase reporter and 50 ng (per well) of pRL-TK Renilla Luciferase plasmid, using Xtremegene (Roche). The cells were treated with the various compounds or Fulvestrant at the indicated doses a day after transfection for 24 hours and luciferase activities were determined using the Dual-Luciferase® Reporter Assay System (Promega) according to manufacturer's instructions. Luciferase bioluminescence measurements were performed with the Veritas™ Microplate Luminometer (Promega). All experiments were conducted in triplicate and the Firefly luciferase activity was normalized with the Renilla luciferase activity of each sample.

[4] = biological target: T3, HA-ERα wild type (Homo sapiens, UniProt P03372); experiment: as above; format: cell-based; conditions: for inhibition at 1 µM: compound concentration 1 μM, 24 hours, read-out: Overexpressed ER (% Inhibition) WT
T3 construct: HA; expressed in transfected cells
T3 sequence (P03372 1-595): T1 sequence (P03372 1-595)
Protocol: as §1, §2

[5] = biological target: T4, HA-ERα L536R (Homo sapiens, UniProt P03372, L536R); experiment: as above; format: cell-based; conditions: for inhibition at 1 µM: compound concentration 1 μM, 24 hours
T4 construct: HA; expressed in transfected cells
T4 sequence (P03372 1-595 L536R): T1 sequence (P03372 1-595) with L536R
Protocol: as §1, §2

[6] = biological target: T5, HA-ERα D538G (Homo sapiens, UniProt P03372, D538G); experiment: as above; format: cell-based; conditions: for inhibition at 1 µM: compound concentration 1 μM, 24 hours
T5 construct: HA; expressed in transfected cells
T5 sequence (P03372 1-595 D538G): T1 sequence (P03372 1-595) with D538G
Protocol: as §1, §2

[7] = system: MCF7; experiment: Cell proliferation assay (Resazurin); format: cell-based; conditions: Homo sapiens
Protocol: (§3) Cell proliferation assays were performed to determine the efficacy of the compounds at inhibiting ER or its mutants' ability at promoting cell proliferation.
(§4) Cells were plated at 1500 cells/well into 96-well culture plates in regular media, treated with the indicated doses of the compounds or Fulvestrant the next day and incubated in a humidified incubator with 5% CO2 at 37° C. They were assayed for cell proliferation at Day 0, 3, 5 and 7 using the Resazurin reagent (R&D Systems), which upon addition, culture plates were incubated at 37° C. incubator for 4 hours before their fluorescence were read at 560 nm excitation and 590 nm emission wavelengths with a microtiter plate reader (Molecular Devices).

[8] = system: Y537S cl. 24; experiment: Cell proliferation assay (Resazurin); format: cell-based
Protocol: as §3, §4

[9] = system: D538G cl. 65; experiment: Cell proliferation assay (Resazurin); format: cell-based
Protocol: as §3, §4

| SMILES | pIC50 [1] | RBA (estradiol = 100) [2] | inhibition at 1 µM [3] [%] | inhibition at 1 µM [4] [%] | inhibition at 1 µM [5] [%] | inhibition at 1 µM [6] [%] | further results |
| --- | --- | --- | --- | --- | --- | --- | --- |
| O=C(NCCOc1ccc(C(=C2C3CC4CC(C3)CC2C4)c2ccc(O)cc2)cc1)C12CC3CC(CC(C3)C1)C2 [Example 4, N-(2-(4-(Adamantan-2-ylidene(4-hydroxyphenyl)methyl)phenoxy)ethyl)-adamantane-1-carboxamide] | 7.77 | 21 ± 6 |  |  |  |  |  |
| CC(C)C[C@H](NC(=O)OC(C)(C)C)C(=O)NCCCCOc1ccc(C(=C2C3CC4CC(C3)CC2C4)c2ccc(O)cc2)cc1 [Example 2, (S)-tert-Butyl (1-((4-(4-(adamantan-2-ylidene(4-hydroxyphenyl)methyl)-phenoxy)butyl)amino)-4-methyl-1-oxopentan-2-yl)carbamate] | 7.44 | 14 ± 1 |  |  |  |  |  |
| O=C(NCCCCOc1ccc(Oc2c(-c3ccc(O)cc3)sc3cc(O)ccc23)cc1)[C@H]1CC[C@H](C(F)(F)F)CC1 [Example 17, (trans)-N-(4-(4-((6-Hydroxy-2-(4-hydroxyphenyl)benzo[b]thiophen-3-yl)oxy)phenoxy)butyl)-4-(trifluoromethyl)cyclohexanecarboxamide] |  |  | 95 | 96 | 94 | 95 | IC90 ([3]; luciferase assay, Table 4): 464 nM; IC90 ([4]; luciferase assay, Table 4): 19 nM; IC90 ([5]; luciferase assay, Table 4): 124 nM; IC90 ([6]; luciferase assay, Table 4): 175 nM; IC90 [7]: 22.1 nM; IC90 [8]: 304 nM; IC90 [9]: 315 nM |
| CC(C)(C)OC(=O)N[C@@H](Cc1ccccc1)C(=O)NCCCCOc1ccc(C(=C2C3CC4CC(C3)CC2C4)c2ccc(O)cc2)cc1 [Example 3, (S)-tert-Butyl(1-((4-(4-(adamantan-2-ylidene(4-hydroxyphenyl)methyl)-phenoxy)butyl)amino)-1-oxo-3-phenylpropan-2-yl)carbamate] | 8.15 | 14 ± 4 |  |  |  |  |  |
| O=C(NCCCCOc1ccc(C(=C2CCCCC2)c2ccc(O)cc2)cc1)C1CCC1 [Example 24, N-(4-(4-(Cyclohexylidene(4-hydroxyphenyl)methyl)phenoxy)-butyl)cyclobutanecarboxamide] |  |  | -160 | -83 | -75 | -7 |  |
| O=C1CCC(N2C(=O)c3cccc(OCCOCCOc4ccc(C(=C5C6CC7CC(C6)CC5C7)c5ccc(O)cc5)cc4)c3C2=O)C(=O)N1 (stereo not shown) [Example 19, 4-(2-(2-(4-(Adamantan-2-ylidene(4-hydroxyphenyl)methyl)phenoxy)-ethoxy)ethoxy)-2-(2,6-dioxopiperidin-3-yl)isoindoline-1,3-dione] |  |  | -136 | 82 | 83 | 90 |  |
| O=C(NCCCOc1ccc(C(=C2C3CC4CC(C3)CC2C4)c2ccc(O)cc2)cc1)C12CC3CC(CC(C3)C1)C2 [Example 5, N-(3-(4-(Adamantan-2-ylidene(4-hydroxyphenyl)methyl)phenoxy)propyl)-adamantane-1-carboxamide] | 8.05 | 26 ± 6 |  |  |  |  |  |
| O=C(NCCCCOc1ccc(Oc2c(-c3ccc(O)cc3)sc3cc(O)ccc23)cc1)C1CC(F)(F)C1 [Example 29, 3,3-Difluoro-N-(4-(4-((6-hydroxy-2-(4-hydroxyphenyl)benzo[b]thiophen-3-yl)oxy)phenoxy)butyl)cyclobutanecarboxamide] |  |  | 1 | 39 | 90 | 73 |  |
